Results published in patent US9700047B2, “Macrocyclic picolinamides as fungicides” (Dow AgroSciences LLC, priority 2014, dated 2017).
Like-named read-outs stand apart in the source and are kept apart here.

System: Puccinia triticina; Synonym: Puccinia recondita f sp. tritici
Experiment: Wheat brown rust (PUCCRT) disease control on wheat seedlings
Format: in vivo
Conditions: for pest or weed control at 121.5 g/ha: Low Volume activity at 121.5 g/H; for pest or weed control at 100 ppm: High Volume activity at 100 ppm
Procedure: All fungicides were evaluated using the aforementioned method for their activity vs. all target diseases, unless stated otherwise. Wheat leaf blotch and brown rust activity were also evaluated using track spray applications, in which case the fungicides were formulated as EC formulations, containing 0.1% Trycol 5941 in the spray solutions. Wheat plants (variety Yuma) were grown from seed in a greenhouse in 50% mineral soil/50% soil-less Metro mix until the first leaf was fully emerged, with 7-10 seedlings per pot. These plants were inoculated with an aqueous spore suspension of Puccinia triticina either prior to or after fungicide treatments. […] The plants were then transferred to a greenhouse set at 24° C. for disease to develop. Fungicide formulation, application and disease assessment followed the procedures as described in the Example A.

[1] = 24 h, 1 Day Protectant, read-out: PUCCRT 1DP % Control rating
[2] = 72 h, 3 Day Curative, read-out: PUCCRT 3DC % Control rating

| SMILES | pest or weed control at 121.5 g/ha [1] [%] | pest or weed control at 121.5 g/ha [2] [%] | pest or weed control at 100 ppm [1] [%] | pest or weed control at 100 ppm [2] [%] |
| --- | --- | --- | --- | --- |
| COc1ccnc(C(=O)N[C@H]2CCC[C@H](Cc3ccc(C(F)(F)F)cc3)[C@@H](CC(C)C)[C@H](C)OC2=O)c1OCOC(=O)C(C)C [Compound 24] | < 70 | < 70 |  |  |
| COc1ccnc(C(=O)N[C@H]2CCC[C@H](Cc3ccccc3)[C@@H](c3ccccc3)[C@H](C)OC2=O)c1OCOC(C)=O [Compound 52] | > 70 | < 70 |  |  |
| CCC[C@H]1CCC[C@H](NC(=O)c2nccc(OC)c2OCOC(C)=O)C(=O)O[C@@H](C)[C@@H]1Cc1ccc(F)cc1 [Compound 48] | > 70 | > 70 |  |  |
| COc1ccnc(C(=O)N[C@H]2CCC[C@H](Cc3ccccc3)[C@@H](Cc3ccc(F)cc3)[C@H](C)OC2=O)c1OC(C)=O [Compound 62] | > 70 | < 70 |  |  |
| COc1ccnc(C(=O)N[C@H]2CCC[C@H](Cc3ccc(Cl)cc3)[C@@H](C3CCCC3)[C@H](C)OC2=O)c1OC(C)=O [Compound 28] | > 70 | < 70 |  |  |
| COc1ccnc(C(=O)N[C@H]2CCC[C@H](Cc3ccc(C(F)(F)F)cc3)[C@@H](Cc3ccc(F)cc3)[C@H](C)OC2=O)c1OCOC(C)=O [Compound 39] | < 70 | < 70 |  |  |
| COc1ccnc(C(=O)N[C@H]2CCC[C@H](Cc3ccccc3)[C@@H](Cc3ccccc3)[C@H](C)OC2=O)c1OCOC(C)=O [Compound 6] | > 70 | > 70 |  |  |
| COc1ccnc(C(=O)N[C@H]2CCC[C@H](Cc3ccc(Cl)cc3)[C@@H](C3CCCC3)[C@H](C)OC2=O)c1OCOC(C)=O [Compound 29] | > 70 | < 70 |  |  |
| COc1ccnc(C(=O)N[C@H]2CCC[C@H](CCC(C)C)[C@@H](Cc3ccccc3)[C@H](C)OC2=O)c1OC(C)=O [Compound 4] | > 70 | < 70 |  |  |
| COc1ccnc(C(=O)N[C@H]2CCC[C@H](Cc3ccc(C(F)(F)F)cc3)[C@@H](Cc3ccccc3)[C@H](C)OC2=O)c1OCOC(=O)C(C)C [Compound 27] | > 70 | < 70 |  |  |
| COc1ccnc(C(=O)N[C@H]2CCC[C@H](Cc3ccccc3)[C@@H](CCc3ccccc3)[C@H](C)OC2=O)c1O [Compound 78] |  |  | > 70 | < 70 |
| COc1ccnc(C(=O)N[C@H]2CCC[C@H](Cc3ccc(C(F)(F)F)cc3)[C@@H](Cc3ccc(F)cc3)[C@H](C)OC2=O)c1OCOC(=O)C(C)C [Compound 41] | < 70 | < 70 |  |  |
| COc1ccnc(C(=O)N[C@H]2CCC[C@H](CCC(C)C)[C@@H](C3CCCC3)[C@H](C)OC2=O)c1OCOC(C)=O [Compound 42] | > 70 | < 70 |  |  |
| COc1ccnc(C(=O)N[C@H]2CCC[C@H](Cc3ccccc3)[C@@H](C3CCCC3)[C@H](C)OC2=O)c1OC(C)=O [Compound 9] | > 70 | < 70 |  |  |
| COc1ccnc(C(=O)N[C@H]2CCC[C@H](Cc3ccccc3)[C@@H](Cc3ccc(F)cc3)[C@H](C)OC2=O)c1OCOC(C)=O [Compound 63] | > 70 | < 70 |  |  |
| CCOCC(=O)OCOc1c(OC)ccnc1C(=O)N[C@H]1CCC[C@H](Cc2ccccc2)[C@@H](Cc2ccc(OC(F)(F)F)cc2)[C@H](C)OC1=O [Compound 69] | < 70 | < 70 |  |  |

| SMILES | pest or weed control at 121.5 g/ha [1] [%] | pest or weed control at 121.5 g/ha [2] [%] | pest or weed control at 100 ppm [1] [%] | pest or weed control at 100 ppm [2] [%] |
| --- | --- | --- | --- | --- |
| COc1ccnc(C(=O)N[C@H]2CCC[C@H](CCCc3ccccc3)[C@@H](CC(C)C)[C@H](C)OC2=O)c1O [Compound 92] |  |  | > 70 | < 70 |
| COc1ccnc(C(=O)N[C@H]2CCC[C@H](Cc3ccccc3)[C@@H](CCC(C)C)[C@H](C)OC2=O)c1O [Compound 88] |  |  | > 70 | < 70 |
| COc1ccnc(C(=O)N[C@H]2CCC[C@H](Cc3ccccc3)[C@@H](Cc3ccc(F)cc3)[C@H](C)OC2=O)c1OCOC(=O)C(C)C [Compound 64] | > 70 | < 70 |  |  |
| CCC[C@H]1CCC[C@H](NC(=O)c2nccc(OC)c2OC(C)=O)C(=O)O[C@@H](C)[C@@H]1Cc1ccc(F)cc1 [Compound 46] | > 70 | > 70 |  |  |
| COc1ccnc(C(=O)N[C@H]2CCC[C@H](CCC(C)C)[C@@H](C3CCCC3)[C@H](C)OC2=O)c1O [Compound 87] |  |  | > 70 | < 70 |
| CCOCC(=O)OCOc1c(OC)ccnc1C(=O)N[C@H]1CCC[C@H](CCC(C)C)[C@@H](CCc2ccccc2)[C@H](C)OC1=O [Compound 35] | > 70 | < 70 |  |  |
| COc1ccnc(C(=O)N[C@H]2CCC[C@H](Cc3ccccc3)[C@@H](CCC(C)C)[C@H](C)OC2=O)c1OC(C)=O [Compound 45] | > 70 | < 70 |  |  |
| COc1ccnc(C(=O)N[C@H]2CCC[C@H](Cc3ccc(Cl)cc3)[C@@H](C3CCCC3)[C@H](C)OC2=O)c1OCOC(=O)C(C)C [Compound 30] | < 70 | < 70 |  |  |
| COc1ccnc(C(=O)N[C@H]2CCC[C@H](Cc3ccccc3)[C@@H](Cc3ccc(OC(F)(F)F)cc3)[C@H](C)OC2=O)c1O [Compound 97] |  |  | > 70 | < 70 |
| CCC[C@H]1CCC[C@H](NC(=O)c2nccc(OC)c2OC(C)=O)C(=O)O[C@@H](C)[C@@H]1c1ccccc1 [Compound 55] | > 70 | > 70 |  |  |
| COc1ccnc(C(=O)N[C@H]2CCC[C@H](CC3CC3)[C@@H](Cc3ccccc3)[C@H](C)OC2=O)c1OCOC(C)=O [Compound 61] | > 70 | > 70 |  |  |
| COc1ccnc(C(=O)N[C@H]2CCC[C@H](Cc3ccc(Cl)cc3)[C@@H](Cc3ccccc3)[C@H](C)OC2=O)c1OCOC(C)=O [Compound 19] | > 70 | < 70 |  |  |
| COc1ccnc(C(=O)N[C@H]2CCC[C@H](Cc3ccc(C(F)(F)F)cc3)[C@@H](Cc3ccc(F)cc3)[C@H](C)OC2=O)c1OC(C)=O [Compound 40] | < 70 | < 70 |  |  |
| CCC[C@H]1CCC[C@H](NC(=O)c2nccc(OC)c2O)C(=O)O[C@@H](C)[C@@H]1Cc1ccccc1 [Compound 82] |  |  | > 70 | > 70 |
| COc1ccnc(C(=O)N[C@H]2CCC[C@H](Cc3ccccc3)[C@@H](c3ccccc3)[C@H](C)OC2=O)c1O [Compound 90] |  |  | > 70 | > 70 |
| CCCC[C@@H]1[C@@H](Cc2ccccc2)CCC[C@H](NC(=O)c2nccc(OC)c2OCOC(C)=O)C(=O)O[C@H]1C [Compound 2, ((2-(((3S,7R,8R,9S)-7-benzyl-8-butyl-9-methyl-2-oxooxonan-3-yl)carbamoyl)-4-methoxypyridin-3-yl)oxy)methyl acetate] | > 70 | < 70 | > 70 | > 70 |
